Legend:
[1] = system: NCI-H358 cells (KRAS G12C mutant cell line); assay: Inhibition of NCI-H358 cell proliferation (CellTiter-Glo, 72 h); format: cell-based, human; conditions: Homo sapiens
How it was run: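 Cells were seeded overnight at 37 °C, 5% CO2, then exposed to serially diluted compound (DMSO/medium) alongside a solvent control for 72 h. Viability was read by CellTiter-Glo luminescence, and IC50 was derived by nonlinear regression of inhibition rate against concentration.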

[2] = system: phosphorylated ERK in KRAS G12C mutant cells Mia PaCa-2; assay: Inhibition of phosphorylated ERK level in Mia PaCa-2 cells (LANCE Ultra); format: cell-based; conditions: Homo sapiens, 2 hours, read-out: Mia PaCa-2 pERK IC50
From the text: As a preferred embodiment of the present disclosure, the method for detecting the inhibitory activity of phosphorylated ERK level is as follows: through cell culture, adding different concentrations of compound solutions to the cultured cells, continuing the culture for a period of time, lysing the cells, followed by centrifugation and […]; • further, the method of cell culture is: adjusting the cells to a suitable cell concentration with a complete medium, preferably the cell concentration is 1×10^6/mL, and spreading the cell suspension on a well plate for culture.
When Mia PaCa-2 cells were cultured to the appropriate fusion level, Mia PaCa-2 cells were collected, and the cell density was adjusted to 1×10^6/mL using complete culture medium, the cell suspension was spread on a 96-well plate, 50 μL per well, and placed adherent to the wall in a 37° C., 5% CO2 incubator overnight, compound solutions with different concentrations were prepared using DMSO and complete culture medium, a solvent control was set, the compound solution was added to a 96-well plate, 25 μL per well, and placed in a 37° C., 5% CO2 incubator for 2 hours of continuous culture, the supernatant was discarded from the cell culture plate, 50 μL of lysis solution was added to each well, and lysing was performed for 30 minutes by shaking at room temperature, then the mixture was centrifuged at 1000 rpm for 1 minute, 15 μL of supernatant was transferred to 384 well plate, 5 μL of detection mixture (Eu-labeled anti-ERK1/2 (T202-Y204) antibody with final concentration of 0.5 nM and ULight labeled anti-ERK1/2 antibody with final concentration of 5 nM) was added to each well, centrifuged at 1000 rpm for 1 minute and mixed uniformly, the reaction was carried out overnight at room temperature, the plate was read with BioTek Synergy H1, and the signal values was detected at 620 nm and 665 nm emission wavelengths by time-resolved fluorescence program.
The ratio of the signal values at 665 nm and 620 nm emission wavelength were calculated, and the ratio was used to calculate the inhibition rate, the concentration and the inhibition rate were fitted to a nonlinear regression curve using Graphpad Prism software, then the IC50 value was obtained.

[3] = Plasma protein binding rate, mouse plasma; format: in vitro ADME; conditions: 37° C.
Method: (§1) The embodiment compound was prepared into a 1 mM solution A with DMSO.
(§2) Solution A was added to the plasma solution and prepared into a 5 μM solution B.
(§3) • 1) 200 μL of solution B was added into the membrane. • 2) 350 μL of PBS was added to the outside of the membrane. • 3) Incubating in a 37° C. water bath for 6 hours. • 4) The samples were processed for dilution and detected by mass spectrometry.
(§4) • Instrument: Shimadzu LC-20 AD; • Chromatographic column: phenomenex Gemiu® C18 (50*4.6 mm, 5 μM particle size); • Mobile phase: A: Acetonitrile, B: 0.1% formic acid solution 0-0.5 min: 5% A→90% A, 2.0-2.1 min: 90% A→5% A; flow rate: 0.8 mL/min; running time: 5.0 min; injection volume: 5 μL.
(§5) • Instrument: API4000 Liquid Chromatography-Mass Spectrometry, AB, USA; • the ion source was electrospray ionization source (ESI); • the temperature of dry gas (N2) was 500° C.; • electrospray voltage was 5500V; • the detection method was positive ion detection; • the scanning mode was selective response monitoring (MRM); the scanning time was 0.1 s.

[4] = Plasma protein binding rate, dog plasma; format: in vitro ADME; conditions: 37° C.
Method: as §1, §2, §3, §4, §5

[5] = Plasma protein binding rate, human plasma; format: in vitro ADME; conditions: 37° C.
Method: as §1, §2, §3, §4, §5

Compound	IC50 [1] [nM]	IC50 [2] [nM]	fraction unbound at 6 h, 5 μM [3]	fraction unbound at 6 h, 5 μM [4]	fraction unbound at 6 h, 5 μM [5]
C=CC(=O)N1C[C@H](C)N(c2nc(=O)n(-c3c(SC)ccnc3C(C)C)c3nc(-c4c(O)cccc4F)c(F)cc23)C[C@H]1C (single isomer, unassigned) [Embodiment 114-1]	35	38	0.116	0.174	0.02
C=CC(=O)N1C[C@H](C)N(c2nc(=O)n(-c3c(SC)ccnc3C(C)C)c3nc(-c4c(O)cccc4F)c(Cl)cc23)C[C@H]1C (single isomer, unassigned) [Embodiment 166-1]	17	20	0.037	0.075	0.032
C=CC(=O)N1C[C@H](C)N(c2nc(=O)n(-c3c(SC)ccnc3C(C)C)c3nc(-c4c(N)ccc(Cl)c4F)c(Cl)cc23)C[C@H]1C (single isomer, unassigned) [Embodiment 165-1]	6.6	4.2	0.061	0.013	0.003
